# Entries after “also recorded” stand apart in the source; their conditions may differ.
# Columns and labels:
# Format in all cases: in vivo, human
# [1] = system: patients with advanced Alzheimer's disease; assay: Safety and tolerability, treatment emergent adverse events (TEAEs), same trial; conditions: 40 μg group
# Method: In a double-blind, randomized, placebo-controlled trial, bryostatin was administered by intravenous infusion (˜45 minutes) to patients with advanced Alzheimer's disease for 12 weeks at doses of 20 or 40 μg. Randomization was stratified at baseline by severe (MMSE-2, 4-9) and moderate (MMSE-2, 10-15) dementia, wherein MMSE-2 refers to Mini-Mental State Examination, version 2. The MMSE or Folstein test is a 30-point questionnaire that is used extensively in clinical and research settings to measure cognitive impairment. Low scores indicate greater impairment. […]
# Adults aged 55-85 with cognitive deficits present for at least 2 years, MMSE-2 of 4-15, inclusive, and a diagnosis of Alzheimer's dementia were randomly assigned to receive blinded intravenous infusions of bryostatin 24 μg or matching placebo at weeks 0 and 1. […] In one arm, the two 24 μg doses were followed by 20 μg doses at weeks 5, 7, 9 and 11 with the Severe Impairment Battery (SIB) measured at baseline and weeks 5, 9, 13, and 15. In a second arm, the two 48 μg doses at weeks 0 and 1 were followed by 40 μg doses at weeks 5, 7, 9, and 11 with the SIB measured at baseline and weeks 5, 9, 13, and 15. […] The first primary endpoint was safety and tolerability, assessed by treatment emergent adverse events (TEAEs) with a sample size of 150 subjects randomized 1:1:1. […]
# [2] = system: patients with advanced Alzheimer's disease; assay: ADCS-ADL-SIV (ADCS-ADL Sev) secondary efficacy endpoint, same trial; conditions: for ADCS-ADL LS Mean difference between 20 μg group and placebo: week 13
# Method: (§1) Adults aged 55-85 with cognitive deficits present for at least 2 years, MMSE-2 of 4-15, inclusive, and a diagnosis of Alzheimer's dementia were randomly assigned to receive blinded intravenous infusions of bryostatin 24 μg or matching placebo at weeks 0 and 1. The 24 μg and 48 μg doses during the first two weeks of the 20 and 40 μg protocols respectively were considered to be “loading” doses thought to be beneficial from prior experience with Compassionate Use trial patients. Nelson et al., Alzheimers Dis. 2017 58: 521-535. In one arm, the two 24 μg doses were followed by 20 μg doses at weeks 5, 7, 9 and 11 with the Severe Impairment Battery (SIB) measured at baseline and weeks 5, 9, 13, and 15. In a second arm, the two 48 μg doses at weeks 0 and 1 were followed by 40 μg doses at weeks 5, 7, 9, and 11 with the SIB measured at baseline and weeks 5, 9, 13, and 15. The subjects were stratified by MMSE-2 in two strata: Stratum 1 (4-9) and Stratum 2 (10-15). The first primary endpoint was safety and tolerability, assessed by treatment emergent adverse events (TEAEs) with a sample size of 150 subjects randomized 1:1:1. Although efficacy was the secondary measure, the primary efficacy endpoint was SIB improvement at week 13 evaluated using a mixed model for repeated measures. A secondary efficacy endpoint was ADCS-ADL Sev. The primary safety population included all subjects who received at least 1 dose of study drug, and efficacy was evaluated in a modified intent to treat (mITT) population that received at least 1 dose of study drug and had at least one treatment evaluation. Efficacy was evaluated both as a primary end-point in the modified intent-to-treat (mITT) population and also as a primary end point in a Completers population that included all patients that completed the entire protocols as described above.
# There was no evidence of treatment by efficacy of acetyl-cholinesterase-inhibitor (AChEI) use interaction. For SIB Total, the two sided p-value for the interaction between treatment and AChEI use was 0.8244 and the two sided p-value for the interaction between treatment, AChEI use and time was 0.9223. Similar results were seen when investigating the effect of AChEI use on treatment effect for ADCS-ADL with p-values of 0.5137 and 0.6256 (two sided), respectively. At week 13, the LS Mean difference between 20 μg group and placebo in SIB Total for AChEI non-users was 2.00 and users was 2.09, and in ADCS-ADL for AChEI non-users was −0.67 and users was 1.99.
# [3] = system: patients with advanced Alzheimer's disease; assay: Severe Impairment Battery (SIB) change from baseline, double-blind randomized placebo-controlled trial; conditions: for Mean slope of SIB over time, Unweight Slope / Mean slope of SIB over time, Weighted Slope: 20 μg Bryostatin; for Mean slope of SIB over time, Unweight Slope: baseline to week 15; for Mean slope of SIB over time, Weighted Slope: weighted by number of non-zero SIB scores; for SIB Total change from baseline, LS Mean (SE) / SIB Total, Difference vs. Placebo / SIB Total change from baseline, LS Mean: Bryostatin 20 μg
# Method: In a double-blind, randomized, placebo-controlled trial, bryostatin was administered by intravenous infusion (˜45 minutes) to patients with advanced Alzheimer's disease for 12 weeks at doses of 20 or 40 μg. Randomization was stratified at baseline by severe (MMSE-2, 4-9) and moderate (MMSE-2, 10-15) dementia, wherein MMSE-2 refers to Mini-Mental State Examination, version 2. The MMSE or Folstein test is a 30-point questionnaire that is used extensively in clinical and research settings to measure cognitive impairment. Low scores indicate greater impairment. Version 2 of the MMSE was published in 2010, expanding the original questionnaire's usefulness in populations with milder forms of cognitive impairment. […] Importantly, this cognitive improvement persisted and increased 30 days after all bryostatin dosing had been completed.
# as §1
# The SIB efficacy measurement at 30 days (week 15) post dosing—after all dosing had been completed (last dose administered at week 11)—was a pre-specified exploratory endpoint. Week 15 results were only included for subjects who were not re-randomized. The mixed model assumes missing at random, but order of enrollment in the trial was not random. Since order of enrollment was not random, the assumption of missing at random is not met. For this reason, only including week 15 for those who were not re-randomized is an appropriate way to estimate week 15 results, but not an appropriate way to estimate results at the earlier visits. For this reason, estimates up through week 13 are from a mixed model that only included data through week 13 and the week 15 estimates are from a separate model. Results were generated using a mixed model with repeated measures predicting change from baseline in SIB Total Score as the response variable and using baseline score, baseline MMSE strata, treatment, visit (categorical), and visit (treatment) as predictors. […]
# [4] = Week 5, Completer, With Memantine
# [5] = Week 5, Completer, Without Memantine
# [6] = Week 9, Completer, With Memantine
# [7] = Week 9, Completer, Without Memantine
compound,measurement,setting,value
"CCC/C=C/C=C/C(=O)O[C@H]1/C(=C/C(=O)OC)C[C@H]2C[C@H]([C@@H](C)O)OC(=O)C[C@H](O)C[C@@H]3C[C@H](OC(C)=O)C(C)(C)[C@](O)(C[C@@H]4C/C(=C/C(=O)OC)C[C@H](/C=C/C(C)(C)[C@]1(O)O2)O4)O3 [Bryostatin, bryostatin-1]",Safety results (adverse events),[1],more adverse events
same,ADCS-ADL efficacy,[2]; 20 μg dose,significant
same,ADCS-ADL difference from placebo,"[2]; 20 μg dose, completers group",1.6
same,ADCS-ADL difference from placebo,"[2]; 20 μg dose, mITT group",1.4
same,"ADCS-ADL, subgroups with and without memantine",[2]; memantine (Namenda) as background SOC therapy or not,not significantly different above placebo
same,ADCS-ADL LS Mean difference between 20 μg group and placebo,[2]; AChEI non-users,−0.67
same,ADCS-ADL LS Mean difference between 20 μg group and placebo,[2]; AChEI users,1.99
same,"Mean slope of SIB over time, Unweight Slope","[3]; first column group (strata head not given, probably memantine naïve)",0.382
same,"Mean slope of SIB over time, Unweight Slope","[3]; second column group (strata head not given, probably memantine exposed)",−0.143
same,"Mean slope of SIB over time, Weighted Slope",[3]; first column group (probably memantine naïve),0.363
same,"Mean slope of SIB over time, Weighted Slope",[3]; second column group (probably memantine exposed),−0.099
same,SIB improvement at week 5 compared to placebo and baseline,"[3]; 20 μg arm, week 5, after 3 doses",significant improvement
same,SIB improvement compared to placebo,"[3]; 20 μg dose, patients on memantine background therapy",no SIB improvement; also recorded: did not occur
same,SIB improvement versus baseline and placebo,"[3]; 20 μg dose, throughout the 13-week trial",sustained improvements in SIB scores; also recorded: sustained efficacy; also recorded: sustained improvement in SIB
same,SIB improvement versus baseline and placebo,[3]; 40 μg dose,lack of efficacy; also recorded: no SIB improvement
same,"SIB Total change from baseline, LS Mean (SE)","[3]; Week 5, Completer, MMRM",1.67 (0.964)
same,"SIB Total, Difference vs. Placebo","[3]; Week 5, Completer, MMRM",4.00
same,"SIB Total change from baseline, LS Mean",[3]; [4],0.61
same,"SIB Total, Difference vs. Placebo",[3]; [4],2.94
same,"SIB Total change from baseline, LS Mean",[3]; [5],3.22
same,"SIB Total, Difference vs. Placebo",[3]; [5],5.38
same,"SIB Total change from baseline, LS Mean (SE)","[3]; Week 5, FAS, MMRM",1.18 (1.102)
same,"SIB Total, Difference vs. Placebo","[3]; Week 5, FAS, MMRM",2.96
same,"SIB Total change from baseline, LS Mean","[3]; Week 5, FAS, With Memantine",0.26
same,"SIB Total, Difference vs. Placebo","[3]; Week 5, FAS, With Memantine",1.96
same,"SIB Total change from baseline, LS Mean","[3]; Week 5, FAS, Without Memantine",2.74
same,"SIB Total, Difference vs. Placebo","[3]; Week 5, FAS, Without Memantine",4.48
same,"SIB Total change from baseline, LS Mean (SE)","[3]; Week 9, Completer, MMRM",1.28 (1.119)
same,"SIB Total, Difference vs. Placebo","[3]; Week 9, Completer, MMRM",1.85
same,"SIB Total change from baseline, LS Mean",[3]; [6],−0.16
same,"SIB Total, Difference vs. Placebo",[3]; [6],0.90
same,"SIB Total change from baseline, LS Mean",[3]; [7],3.34
same,"SIB Total, Difference vs. Placebo",[3]; [7],2.66
same,"SIB Total change from baseline, LS Mean (SE)","[3]; Week 9, FAS, MMRM",0.94 (1.149)
same,"SIB Total, Difference vs. Placebo","[3]; Week 9, FAS, MMRM",1.03
same,"SIB Total change from baseline, LS Mean","[3]; Week 9, FAS, With Memantine",−0.33
same,"SIB Total, Difference vs. Placebo","[3]; Week 9, FAS, With Memantine",0.09
same,"SIB Total change from baseline, LS Mean","[3]; Week 9, FAS, Without Memantine",2.95
same,"SIB Total, Difference vs. Placebo","[3]; Week 9, FAS, Without Memantine",2.08
same,"SIB Total change from baseline, LS Mean (SE)","[3]; Week 13, Completer, MMRM",1.51 (1.118)
same,"SIB Total, Difference vs. Placebo","[3]; Week 13, Completer, MMRM",2.63
same,"SIB Total, Difference vs. Placebo","[3]; Week 13, Completer, MMRM, listed as bryostatin",2.6

# Source: patent publication US20190350898A1, “METHODS AND COMPOSITIONS FOR TREATMENT OF ALZHEIMER'S DISEASE” (Neurotrope Bioscience, Inc., priority 2018, published 2019)
